Among the data in US9340590B2 (priority 2011, dated 2016) are IC50 values, retold here.

SMILES strings stand for the structures. Where two headings read alike, the source gives them in different places. Positions of bridges follow the written chain, without caps; N, C: chain ends. Residues, ends and D or L forms follow the SMILES beside them.

Holding throughout (assay): cell-based
One assay deals with hNav1.7 (Homo sapiens, UniProt Q15858). The class given is cell-based.
In another assay the target is hNav1.5 (Homo sapiens, UniProt Q14524).
Chain of hNav1.5 (Q14524 whole entry, looked up): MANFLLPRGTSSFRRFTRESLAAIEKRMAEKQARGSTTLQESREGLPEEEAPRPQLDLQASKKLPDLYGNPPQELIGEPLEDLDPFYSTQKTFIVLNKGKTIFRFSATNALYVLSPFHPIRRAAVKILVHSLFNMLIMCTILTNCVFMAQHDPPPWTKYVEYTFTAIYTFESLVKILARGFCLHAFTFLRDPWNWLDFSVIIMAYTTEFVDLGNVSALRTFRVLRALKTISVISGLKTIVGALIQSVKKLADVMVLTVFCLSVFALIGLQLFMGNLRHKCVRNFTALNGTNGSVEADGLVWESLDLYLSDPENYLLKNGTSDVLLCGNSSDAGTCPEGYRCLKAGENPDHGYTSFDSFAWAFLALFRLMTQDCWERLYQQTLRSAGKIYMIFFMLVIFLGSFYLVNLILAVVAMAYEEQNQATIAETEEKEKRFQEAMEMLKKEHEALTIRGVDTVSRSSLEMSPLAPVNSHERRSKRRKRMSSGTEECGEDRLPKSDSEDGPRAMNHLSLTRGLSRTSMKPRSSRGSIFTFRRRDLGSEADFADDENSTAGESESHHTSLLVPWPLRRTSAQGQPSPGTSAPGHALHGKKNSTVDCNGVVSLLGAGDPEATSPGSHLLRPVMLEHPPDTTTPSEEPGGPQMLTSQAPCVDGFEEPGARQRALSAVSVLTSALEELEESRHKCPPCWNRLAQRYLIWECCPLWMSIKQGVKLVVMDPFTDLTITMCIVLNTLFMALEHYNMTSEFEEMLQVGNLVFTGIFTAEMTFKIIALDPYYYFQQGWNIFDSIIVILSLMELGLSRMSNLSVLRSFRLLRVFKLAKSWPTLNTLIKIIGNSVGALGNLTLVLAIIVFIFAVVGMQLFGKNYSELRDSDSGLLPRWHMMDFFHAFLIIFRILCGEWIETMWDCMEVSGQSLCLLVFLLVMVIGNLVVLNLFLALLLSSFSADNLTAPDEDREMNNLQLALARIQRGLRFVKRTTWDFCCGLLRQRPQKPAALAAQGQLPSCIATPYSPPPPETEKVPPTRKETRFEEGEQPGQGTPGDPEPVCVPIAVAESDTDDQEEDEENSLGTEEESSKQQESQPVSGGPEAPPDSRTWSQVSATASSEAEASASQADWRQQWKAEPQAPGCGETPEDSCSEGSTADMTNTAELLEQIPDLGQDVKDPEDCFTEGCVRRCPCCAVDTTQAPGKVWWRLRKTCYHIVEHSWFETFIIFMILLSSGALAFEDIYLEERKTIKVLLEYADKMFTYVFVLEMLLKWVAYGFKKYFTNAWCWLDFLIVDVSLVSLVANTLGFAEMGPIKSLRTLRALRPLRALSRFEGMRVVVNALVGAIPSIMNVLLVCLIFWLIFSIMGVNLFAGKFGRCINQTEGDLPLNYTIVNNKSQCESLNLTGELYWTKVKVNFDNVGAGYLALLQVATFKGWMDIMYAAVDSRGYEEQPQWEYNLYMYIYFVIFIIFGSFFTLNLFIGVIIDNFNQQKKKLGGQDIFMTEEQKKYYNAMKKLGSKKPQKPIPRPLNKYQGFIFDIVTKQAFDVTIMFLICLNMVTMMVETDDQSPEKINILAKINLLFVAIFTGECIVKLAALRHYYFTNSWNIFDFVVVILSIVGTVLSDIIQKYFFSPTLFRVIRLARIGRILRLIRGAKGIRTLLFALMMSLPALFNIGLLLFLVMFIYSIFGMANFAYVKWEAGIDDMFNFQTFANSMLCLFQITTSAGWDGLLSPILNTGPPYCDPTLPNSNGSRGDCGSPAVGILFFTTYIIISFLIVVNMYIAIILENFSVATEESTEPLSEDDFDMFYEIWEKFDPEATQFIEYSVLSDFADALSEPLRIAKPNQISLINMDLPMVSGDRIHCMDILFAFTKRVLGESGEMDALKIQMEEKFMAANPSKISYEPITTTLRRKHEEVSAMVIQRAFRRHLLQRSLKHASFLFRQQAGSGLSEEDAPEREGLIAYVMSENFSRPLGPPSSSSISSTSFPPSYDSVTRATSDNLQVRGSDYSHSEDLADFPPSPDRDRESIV
Another assay addresses hNav1.3 (Homo sapiens, UniProt Q9NY46). To be noted: IonWorks Quattro, read-out: IWQ Use Nav1.3.
[1] abbreviates: IonWorks Quattro, use-dependent, […], read-out: IWQ Use Nav1.5.

Chain of hNav1.3 (Q9NY46 whole entry, looked up): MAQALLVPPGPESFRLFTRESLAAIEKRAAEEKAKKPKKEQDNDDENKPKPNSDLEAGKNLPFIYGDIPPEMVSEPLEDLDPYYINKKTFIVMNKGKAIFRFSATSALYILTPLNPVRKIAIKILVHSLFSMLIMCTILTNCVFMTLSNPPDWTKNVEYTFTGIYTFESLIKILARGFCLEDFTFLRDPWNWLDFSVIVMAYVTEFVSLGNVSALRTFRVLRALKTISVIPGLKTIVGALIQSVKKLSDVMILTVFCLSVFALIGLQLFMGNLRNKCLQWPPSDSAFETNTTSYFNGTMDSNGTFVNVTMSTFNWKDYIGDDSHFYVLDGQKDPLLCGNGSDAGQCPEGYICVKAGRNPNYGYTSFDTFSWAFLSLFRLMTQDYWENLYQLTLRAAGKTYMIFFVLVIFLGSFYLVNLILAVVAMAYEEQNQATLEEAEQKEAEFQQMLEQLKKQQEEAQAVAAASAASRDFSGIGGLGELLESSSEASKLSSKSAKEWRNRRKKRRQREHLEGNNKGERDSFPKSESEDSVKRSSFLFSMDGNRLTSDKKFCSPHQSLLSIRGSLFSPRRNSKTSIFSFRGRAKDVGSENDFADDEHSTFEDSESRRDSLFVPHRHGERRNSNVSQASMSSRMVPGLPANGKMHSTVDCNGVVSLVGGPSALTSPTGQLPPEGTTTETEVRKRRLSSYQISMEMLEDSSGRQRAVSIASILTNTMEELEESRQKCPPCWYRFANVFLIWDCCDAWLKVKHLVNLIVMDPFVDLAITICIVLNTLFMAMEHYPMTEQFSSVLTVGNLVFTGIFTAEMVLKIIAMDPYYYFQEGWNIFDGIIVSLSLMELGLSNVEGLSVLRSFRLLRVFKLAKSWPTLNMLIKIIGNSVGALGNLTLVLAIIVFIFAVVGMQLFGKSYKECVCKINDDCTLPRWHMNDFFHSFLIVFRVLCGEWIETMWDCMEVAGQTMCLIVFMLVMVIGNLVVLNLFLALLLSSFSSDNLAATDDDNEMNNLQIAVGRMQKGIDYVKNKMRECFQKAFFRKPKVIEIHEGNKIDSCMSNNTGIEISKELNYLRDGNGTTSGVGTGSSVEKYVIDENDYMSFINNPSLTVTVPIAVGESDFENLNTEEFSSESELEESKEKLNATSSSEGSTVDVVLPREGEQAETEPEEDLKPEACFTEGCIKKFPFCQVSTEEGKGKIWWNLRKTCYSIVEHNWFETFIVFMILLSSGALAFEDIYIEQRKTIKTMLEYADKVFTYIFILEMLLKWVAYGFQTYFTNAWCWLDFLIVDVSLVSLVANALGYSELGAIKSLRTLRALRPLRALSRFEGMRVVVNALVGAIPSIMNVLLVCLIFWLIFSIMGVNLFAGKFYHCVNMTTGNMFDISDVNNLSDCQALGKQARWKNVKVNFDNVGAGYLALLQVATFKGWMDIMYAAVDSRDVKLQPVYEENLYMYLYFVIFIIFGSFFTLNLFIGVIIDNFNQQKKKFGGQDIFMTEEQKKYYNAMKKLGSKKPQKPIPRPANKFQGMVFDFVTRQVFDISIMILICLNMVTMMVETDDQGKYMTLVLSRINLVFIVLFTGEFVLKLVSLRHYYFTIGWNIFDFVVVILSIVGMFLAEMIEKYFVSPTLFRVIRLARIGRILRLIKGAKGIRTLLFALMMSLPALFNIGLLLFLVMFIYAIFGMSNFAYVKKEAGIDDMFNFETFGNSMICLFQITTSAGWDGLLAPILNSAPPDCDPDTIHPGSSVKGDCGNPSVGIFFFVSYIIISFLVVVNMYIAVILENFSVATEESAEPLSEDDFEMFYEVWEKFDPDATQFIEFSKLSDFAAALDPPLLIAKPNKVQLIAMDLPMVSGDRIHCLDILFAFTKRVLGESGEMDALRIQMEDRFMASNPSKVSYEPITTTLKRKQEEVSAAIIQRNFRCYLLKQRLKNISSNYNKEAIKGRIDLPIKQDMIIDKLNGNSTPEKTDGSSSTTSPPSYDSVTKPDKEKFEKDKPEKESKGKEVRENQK

For the compound `CC[C@H](C)[C@@H]1NC(=O)[C@@H]2CSSC[C@@H]3NC(=O)[C@H](C(C)C)NC(=O)[C@H](CC(C)C)NC(=O)[C@H](CC(N)=O)NC(=O)[C@@H]4CCCN4C(=O)[C@H](CCCNC(=N)N)NC(=O)[C@H](CSSC[C@H](NC(=O)[C@@H](N)CC(=O)O)C(=O)N[C@@H](CC(C)C)C(=O)NCC(=O)N[C@@H](Cc4ccccc4)C(=O)N[C@@H](CCSC)C(=O)N[C@@H](CCCNC(=N)N)C(=O)N[C@@H](CCCCN)C(=O)N2)NC(=O)[C@H](CSSC[C@@H](C(=O)N[C@@H](CCCCN)C(=O)N[C@@H](Cc2ccc(O)cc2)C(=O)N[C@@H](CCCCN)C(=O)N[C@@H](Cc2ccccc2)C(N)=O)NC(=O)[C@H](Cc2c[nH]c4ccccc24)NC(=O)[C@H](CCCCN)NC(=O)[C@H](Cc2cnc[nH]2)NC(=O)[C@H]([C@@H](C)O)NC(=O)[C@H](CCCNC(=N)N)NC(=O)[C@H](CO)NC3=O)NC(=O)[C@H](CCCCN)NC(=O)[C@H](CC(=O)O)NC(=O)[C@H](CC(N)=O)NC(=O)[C@H](CC(=O)O)NC(=O)[C@@H]2CCCN2C1=O` [compound 58] (H-DCLGFMRKCIPDNDKCCRPNLVCSRTHKWCKYKF-NH2; disulfide 2-17, 9-23, 16-30), the IC50 on hNav1.7 (Table 26, IonWorks Quattro, use, […], read-out: IWQ Use Nav1.7) came out at 70 nM; on hNav1.5 (Table 26, IonWorks Quattro, use, […], read-out: IWQ Use Nav1.5) it was 9.56 µM; on hNav1.3 (Table 26, use, […]), 70 nM.

Take `CC[C@H](C)[C@@H]1NC(=O)[C@@H]2CSSC[C@@H]3NC(=O)[C@H](C(C)C)NC(=O)[C@H](CC(C)C)NC(=O)[C@H](CC(N)=O)NC(=O)[C@@H]4CCCN4C(=O)[C@H](CCCNC(=N)N)NC(=O)[C@H](CSSC[C@H](NC(=O)[C@@H](N)CC(=O)O)C(=O)N[C@@H](CC(C)C)C(=O)NCC(=O)N[C@@H](Cc4ccccc4)C(=O)N[C@@H](CCSC)C(=O)N[C@@H](CCCNC(=N)N)C(=O)N[C@@H](CCCCN)C(=O)N2)NC(=O)[C@H](CSSC[C@@H](C(=O)N[C@@H](CCCCN)C(=O)N[C@@H](Cc2ccc(O)cc2)C(=O)N[C@H](C(=O)N[C@@H](CCCCN)C(N)=O)C(C)C)NC(=O)[C@H](Cc2c[nH]c4ccccc24)NC(=O)[C@H](CCCCN)NC(=O)[C@H](Cc2cnc[nH]2)NC(=O)[C@H]([C@@H](C)O)NC(=O)[C@H](CCCNC(=N)N)NC(=O)[C@H](CO)NC3=O)NC(=O)[C@H](CCCCN)NC(=O)[C@H](CC(=O)O)NC(=O)[C@H](CC(N)=O)NC(=O)[C@H](CC(=O)O)NC(=O)[C@@H]2CCCN2C1=O` [compound 59] (H-DCLGFMRKCIPDNDKCCRPNLVCSRTHKWCKYVK-NH2; disulfide 2-17, 9-23, 16-30): the IC50 on hNav1.7 (IonWorks Quattro, use-dependent, […], read-out: IWQ Use Nav1.7) is 5680 nM; at hNav1.5 (setting [1]), 18.1 µM; at hNav1.3 (use-dependent, […]), 7740 nM.

For the compound `CC[C@H](C)[C@@H]1NC(=O)[C@@H]2CSSC[C@@H]3NC(=O)[C@H](C(C)C)NC(=O)[C@H](CC(C)C)NC(=O)[C@H](CC(N)=O)NC(=O)[C@@H]4CCCN4C(=O)[C@H](CCCNC(=N)N)NC(=O)[C@H](CSSC[C@H](NC(=O)[C@@H](N)CC(=O)O)C(=O)N[C@@H](CC(C)C)C(=O)NCC(=O)N[C@@H](Cc4ccccc4)C(=O)N[C@@H](CCSC)C(=O)N[C@@H](CCCNC(=N)N)C(=O)N[C@@H](CCCCN)C(=O)N2)NC(=O)[C@H](CSSC[C@@H](C(=O)N[C@@H](CCCCN)C(=O)N[C@@H](Cc2ccc(O)cc2)C(=O)N[C@H](C(=O)N[C@@H](Cc2ccccc2)C(=O)N[C@@H](CCCCN)C(N)=O)C(C)C)NC(=O)[C@H](Cc2c[nH]c4ccccc24)NC(=O)[C@H](CCCCN)NC(=O)[C@H](Cc2c[nH]cn2)NC(=O)[C@H]([C@@H](C)O)NC(=O)[C@H](CCCNC(=N)N)NC(=O)[C@H](CO)NC3=O)NC(=O)[C@H](CCCCN)NC(=O)[C@H](CC(=O)O)NC(=O)[C@H](CC(N)=O)NC(=O)[C@H](CC(=O)O)NC(=O)[C@@H]2CCCN2C1=O` [compound 60], the IC50 was 590 nM at hNav1.7 (IonWorks Quattro, use-dependent, […], read-out: IWQ Use Nav1.7 (μm)); 12.5 µM at hNav1.5 (setting [1]); 210 nM at hNav1.3 (use-dependent, […]).

`CSCC[C@@H]1NC(=O)[C@H](Cc2ccccc2)NC(=O)CNC(=O)[C@H](CC(C)C)NC(=O)[C@@H](NC(=O)[C@@H](N)CC(=O)O)CSSC[C@@H]2NC(=O)[C@@H]3CSSC[C@@H](C(=O)N[C@@H](CCCCN)C(=O)N[C@@H](Cc4ccc(O)cc4)C(=O)N[C@H](C(=O)N[C@@H](Cc4ccccc4)C(N)=O)C(C)C)NC(=O)[C@H](Cc4c[nH]c5ccccc45)NC(=O)[C@H](CCCCN)NC(=O)[C@H](Cc4cnc[nH]4)NC(=O)[C@H]([C@@H](C)O)NC(=O)[C@H](CCCNC(=N)N)NC(=O)[C@H](CO)NC(=O)[C@H](CSSC[C@H](NC(=O)[C@H](CCCCN)NC(=O)[C@H](CCCNC(=N)N)NC1=O)C(=O)N[C@@H](CCCNC(=N)N)C(=O)N1CCC[C@H]1C(=O)N[C@@H](CC(=O)O)C(=O)N[C@@H](CC(N)=O)C(=O)N[C@@H](CC(=O)O)C(=O)N[C@@H](CCCCN)C(=O)N3)NC(=O)[C@H](C(C)C)NC(=O)[C@H](CC(C)C)NC(=O)[C@H](CC(N)=O)NC(=O)[C@@H]1CCCN1C(=O)[C@H](CCCNC(=N)N)NC2=O` [compound 66] (H-DCLGFMRKCRPDNDKCCRPNLVCSRTHKWCKYVF-NH2; disulfide 2-17, 9-23, 16-30): the IC50 is 160 nM against hNav1.7; 15.2 µM on hNav1.5 (IonWorks Quattro, Use, read-out: IWQ Use Nav1.5); 110 nM at hNav1.3 (Use).

Take `CC[C@H](C)[C@@H]1NC(=O)[C@@H]2CSSC[C@@H]3NC(=O)[C@H](C(C)C)NC(=O)[C@H](CC(C)C)NC(=O)[C@H](CC(N)=O)NC(=O)[C@@H]4CCCN4C(=O)[C@H](CCCNC(=N)N)NC(=O)[C@H](CSSC[C@H](NC(=O)[C@@H](N)CC(=O)O)C(=O)N[C@@H](CC(C)C)C(=O)NCC(=O)N[C@@H](Cc4ccccc4)C(=O)N[C@@H](CCSC)C(=O)N[C@@H](CCCNC(=N)N)C(=O)N[C@@H](CCCCN)C(=O)N2)NC(=O)[C@H](CSSC[C@@H](C(=O)N[C@@H](CCCCN)C(=O)N[C@@H](Cc2ccc(O)cc2)C(=O)N[C@H](C(=O)N[C@@H](Cc2ccccc2)C(N)=O)C(C)C)NC(=O)[C@H](Cc2c[nH]c4ccccc24)NC(=O)[C@H](CCCCN)NC(=O)[C@H](Cc2cnc[nH]2)NC(=O)[C@H]([C@@H](C)O)NC(=O)[C@H](CCCNC(=N)N)NC(=O)[C@H](CO)NC3=O)NC(=O)[C@H](CCCNC(=N)N)NC(=O)[C@H](CC(=O)O)NC(=O)[C@H](CC(N)=O)NC(=O)[C@H](CC(=O)O)NC(=O)[C@@H]2CCCN2C1=O` [compound 68] (H-DCLGFMRKCIPDNDRCCRPNLVCSRTHKWCKYVF-NH2; disulfide 2-17, 9-23, 16-30): the IC50 at hNav1.7 (IonWorks Quattro, Use, read-out: IWQ Use Nav1.7) amounted to 200 nM; on hNav1.5 (IWQ Use Nav1.5 (μM)), 18.1 µM; on hNav1.3 (Use), 140 nM.

Take `CC[C@H](C)[C@@H]1NC(=O)[C@@H]2CSSC[C@@H]3NC(=O)[C@H](C(C)C)NC(=O)[C@H](CC(C)C)NC(=O)[C@H](CC(N)=O)NC(=O)[C@@H]4CCCN4C(=O)[C@H](CCCNC(=N)N)NC(=O)[C@H](CSSC[C@H](NC(=O)[C@@H](N)CC(=O)O)C(=O)N[C@@H](CC(C)C)C(=O)NCC(=O)N[C@@H](Cc4ccccc4)C(=O)N[C@@H](CCSC)C(=O)N[C@@H](CCCNC(=N)N)C(=O)N[C@@H](CCCCN)C(=O)N2)NC(=O)[C@H](CSSC[C@@H](C(=O)N[C@@H](CCCCN)C(=O)N[C@@H](Cc2ccc(O)cc2)C(=O)N[C@H](C(=O)N[C@@H](Cc2ccccc2)C(N)=O)C(C)C)NC(=O)[C@H](Cc2c[nH]c4ccccc24)NC(=O)[C@H](CCCCN)NC(=O)[C@H](Cc2cnc[nH]2)NC(=O)[C@H](CCCNC(=N)N)NC(=O)[C@H](CCCNC(=N)N)NC(=O)[C@H](CO)NC3=O)NC(=O)[C@H](CCCCN)NC(=O)[C@H](CC(=O)O)NC(=O)[C@H](CC(N)=O)NC(=O)[C@H](CC(=O)O)NC(=O)[C@@H]2CCCN2C1=O` [compound 70] (H-DCLGFMRKCIPDNDKCCRPNLVCSRRHKWCKYVF-NH2; disulfide 2-17, 9-23, 16-30): the IC50 at hNav1.7 (Table 22, IonWorks Quattro, use, […], read-out: IWQ Use Nav1.7) was 30 nM; against hNav1.5 (IWQ Use Nav1.5 (μM)), 3.06 µM; at hNav1.3 (Table 22, use, […]), 8 nM.

With `CC[C@H](C)[C@@H]1NC(=O)[C@@H]2CSSC[C@@H]3NC(=O)[C@H](C(C)C)NC(=O)[C@H](CC(C)C)NC(=O)[C@H](CC(N)=O)NC(=O)[C@@H]4CCCN4C(=O)[C@H](CCCNC(=N)N)NC(=O)[C@H](CSSC[C@H](NC(=O)[C@@H](N)CC(=O)O)C(=O)N[C@@H](CC(C)C)C(=O)NCC(=O)N[C@@H](Cc4ccccc4)C(=O)N[C@@H](CCSC)C(=O)N[C@@H](CCCNC(=N)N)C(=O)N[C@@H](CCCCN)C(=O)N2)NC(=O)[C@H](CSSC[C@@H](C(=O)N[C@@H](CCCCN)C(=O)N[C@@H](Cc2ccc(O)cc2)C(=O)N[C@H](C(=O)N[C@@H](Cc2ccccc2)C(N)=O)C(C)C)NC(=O)[C@H](Cc2c[nH]c4ccccc24)NC(=O)[C@H](CCCCN)NC(=O)[C@H](CCCNC(=N)N)NC(=O)[C@H]([C@@H](C)O)NC(=O)[C@H](CCCNC(=N)N)NC(=O)[C@H](CO)NC3=O)NC(=O)[C@H](CCCCN)NC(=O)[C@H](CC(=O)O)NC(=O)[C@H](CC(N)=O)NC(=O)[C@H](CC(=O)O)NC(=O)[C@@H]2CCCN2C1=O` [compound 71] (H-DCLGFMRKCIPDNDKCCRPNLVCSRTRKWCKYVF-NH2; disulfide 2-17, 9-23, 16-30), the IC50 against hNav1.7 was determined as 510 nM; at hNav1.5 (Table 23, IonWorks Quattro, use, […], read-out: IWQ Use Nav1.5) it was 5.22 µM; on hNav1.3 (Table 23, use, […]), 510 nM.
